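Five compound concentrations were applied to cells in 96-well plates for 48 hours; endpoints were derived by simple linear interpolation of the resulting dose-response curve. GI50 = concentration required for 50% inhibition of growth.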 Calls of active or inactive are those of the source. Rule as the data show it: active = GI50 up to about 1.1 µM and inactive = higher.
Tests used:
Assay in all cases: inhibition of tumour cell growth, NCI panel, 48 h
[1] = test system: KM12
[2] = test system: SK-MEL-5
[3] = test system: OVCAR-5
[4] = test system: MDA-MB-231
[5] = test system: U-251
[6] = test system: SK-MEL-28
[7] = test system: Malme-3M
[8] = test system: SN12C
[9] = test system: PC-3
[10] = test system: IGROV-1
[11] = test system: RPMI-8226
[12] = test system: COLO 205
[13] = test system: CAKI-1
[14] = test system: OVCAR-4
[15] = test system: SF-539
[16] = test system: HL-60
[17] = test system: MDA-MB-435
[18] = test system: UACC-257
[19] = test system: HCC 2998
[20] = test system: EKVX
[21] = test system: T47D
[22] = test system: NCI-H460
[23] = test system: K562
[24] = test system: SW-620
[25] = test system: SF-268
[26] = test system: NCI/ADR-RES
[27] = test system: NCI-H226
[28] = test system: MCF7
[29] = test system: Hs-578T
[30] = test system: BT-549
[31] = test system: UACC-62
[32] = test system: SK-MEL-2
[33] = test system: A549
[34] = test system: TK-10
[35] = test system: MDA-N
[36] = test system: OVCAR-8
[37] = test system: SNB-19
[38] = test system: CCRF-CEM
[39] = test system: LOX IMVI
[40] = test system: ACHN
[41] = test system: NCI-H23
[42] = test system: DU-145
[43] = test system: SF-295
[44] = test system: OVCAR-3
[45] = test system: HT-29
[46] = test system: SK-OV-3
[47] = test system: NCI-H522
[48] = test system: HOP-62
[49] = test system: RXF 393
[50] = test system: M14
[51] = test system: HOP-92
[52] = test system: A498
[53] = test system: MOLT-4
[54] = test system: SNB-75
[55] = test system: HCT-116
[56] = test system: UO-31
[57] = test system: HCT-15
[58] = test system: SR
[59] = test system: 786-0

Compound: COc1ccc2c(c1)-c1nc(=S)n(CCCN(C)C)c3ccc([N+](=O)[O-])c(c13)N2
- GI50 [1]: 0.543 µM (active)
- GI50 [2]: 1.14 µM (inactive)
- GI50 [3]: 0.611 µM (active)
- GI50 [4]: 0.687 µM (active)
- GI50 [5]: 0.592 µM (active)
- GI50 [6]: 1.13 µM (inactive)
- GI50 [7]: 0.518 µM (active)
- GI50 [8]: 0.582 µM (active)
- GI50 [9]: 0.771 µM (active)
- GI50 [10]: 0.345 µM (active)
- GI50 [11]: 0.693 µM (active)
- GI50 [12]: 0.656 µM (active)
- GI50 [13]: 1.68 µM (inactive)
- GI50 [14]: 1.13 µM (inactive)
- GI50 [15]: 0.589 µM (active)
- GI50 [16]: 0.0269 µM (active)
- GI50 [17]: 1.97 µM (inactive)
- GI50 [18]: 1.22 µM (inactive)
- GI50 [19]: 1.5 µM (inactive)
- GI50 [20]: 0.805 µM (active)
- GI50 [21]: 18.7 µM (inactive)
- GI50 [22]: 0.358 µM (active)
- GI50 [23]: 0.454 µM (active)
- GI50 [24]: 0.344 µM (active)
- GI50 [25]: 0.617 µM (active)
- GI50 [26]: 1.25 µM (inactive)
- GI50 [27]: 1.36 µM (inactive)
- GI50 [28]: 0.437 µM (active)
- GI50 [29]: 1.72 µM (inactive)
- GI50 [30]: 7.21 µM (inactive)
- GI50 [31]: 12.1 µM (inactive)
- GI50 [32]: 14.7 µM (inactive)
- GI50 [33]: 0.363 µM (active)
- GI50 [34]: 2.8 µM (inactive)
- GI50 [35]: 0.815 µM (active)
- GI50 [36]: 0.456 µM (active)
- GI50 [37]: 0.8 µM (active)
- GI50 [38]: 0.205 µM (active)
- GI50 [39]: 0.53 µM (active)
- GI50 [40]: 0.296 µM (active)
- GI50 [41]: 1.08 µM (active)
- GI50 [42]: 0.689 µM (active)
- GI50 [43]: 1.81 µM (inactive)
- GI50 [44]: 1.59 µM (inactive)
- GI50 [45]: 0.261 µM (active)
- GI50 [46]: 1.11 µM (active)
- GI50 [47]: 0.766 µM (active)
- GI50 [48]: 0.451 µM (active)
- GI50 [49]: 0.471 µM (active)
- GI50 [50]: 8.26 µM (inactive)
- GI50 [51]: 2.15 µM (inactive)
- GI50 [52]: 4.09 µM (inactive)
- GI50 [53]: 0.141 µM (active)
- GI50 [54]: 6.32 µM (inactive)
- GI50 [55]: 0.224 µM (active)
- GI50 [56]: 0.49 µM (active)
- GI50 [57]: 0.484 µM
- GI50 [58]: 0.506 µM (active)
- GI50 [59]: 0.279 µM (active)

Compound: Cc1cn(S(=O)(=O)c2ccccc2)c2c(OCc3ccccc3)cc(NS(C)(=O)=O)cc12
- GI50 [1]: 10.9 µM (inactive)
- GI50 [2]: 4.35 µM (inactive)
- GI50 [3]: 61.8 µM (inactive)
- GI50 [4]: 9.66 µM (inactive)
- GI50 [5]: 10.6 µM (inactive)
- GI50 [6]: 52.8 µM (inactive)
- GI50 [7]: 8.38 µM (inactive)
- GI50 [8]: 13.7 µM (inactive)
- GI50 [9]: 3.92 µM (inactive)
- GI50 [10]: 33 µM (inactive)
- GI50 [11]: 13.2 µM (inactive)
- GI50 [12]: 10.3 µM (inactive)
- GI50 [13]: 72.3 µM (inactive)
- GI50 [14]: 6.35 µM (inactive)
- GI50 [15]: 38.8 µM (inactive)
- GI50 [16]: 4.52 µM (inactive)
- GI50 [17]: 9.64 µM (inactive)
- GI50 [18]: 10.1 µM (inactive)
- GI50 [19]: 24.4 µM (inactive)
- GI50 [20]: 5.35 µM (inactive)
- GI50 [21]: 4.72 µM (inactive)
- GI50 [22]: 18.5 µM (inactive)
- GI50 [23]: 20.1 µM (inactive)
- GI50 [24]: 17.8 µM (inactive)
- GI50 [25]: 14 µM (inactive)
- GI50 [26]: 14.9 µM (inactive)
- GI50 [27]: 16.1 µM (inactive)
- GI50 [28]: 6.98 µM (inactive)
- GI50 [29]: 39.5 µM (inactive)
- GI50 [30]: 27.6 µM (inactive)
- GI50 [31]: 17.9 µM (inactive)
- GI50 [32]: 18.1 µM (inactive)
- GI50 [33]: 9.82 µM (inactive)
- GI50 [34]: > 85.9 µM (inactive)
- GI50 [35]: 10.7 µM (inactive)
- GI50 [36]: 32 µM (inactive)
- GI50 [37]: 43.3 µM (inactive)
- GI50 [39]: 11.4 µM (inactive)
- GI50 [40]: 20.4 µM (inactive)
- GI50 [41]: 16 µM (inactive)
- GI50 [42]: 31.3 µM (inactive)
- GI50 [43]: 14.7 µM (inactive)
- GI50 [44]: 10.6 µM (inactive)
- GI50 [45]: 4.42 µM (inactive)
- GI50 [46]: 40.9 µM (inactive)
- GI50 [47]: 18.8 µM (inactive)
- GI50 [48]: 50.2 µM (inactive)
- GI50 [49]: 14.6 µM (inactive)
- GI50 [50]: 19.2 µM (inactive)
- GI50 [51]: 27.2 µM (inactive)
- GI50 [52]: 8.15 µM (inactive)
- GI50 [53]: 3.45 µM (inactive)
- GI50 [54]: 22.9 µM (inactive)
- GI50 [55]: 9.12 µM (inactive)
- GI50 [56]: 17.7 µM (inactive)
- GI50 [57]: 12.9 µM
- GI50 [58]: 4.98 µM (inactive)
- GI50 [59]: 16.4 µM (inactive)

From ChEMBL document CHEMBL1201862, “PubChem BioAssay data set” (2004)
